Where two headings read alike, the source gives them in different places.
Molecular target: CFTR (Homo sapiens, UniProt P13569)
Test: Membrane potential dye, Enteroid Assay A
Format: cell-based
Conditions: for Ent. A Max Activity: chloride transport as % of triple combination control (Enteroid Assay A); for EC50: human enteroid cells, 18-24 hours, acute 10 μM forskolin and 300 nM ivacaftor, read-out: Ent. A EC50
Summary of the method: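 % Activity: chloride transport relative to a 3 μM/3 μM corrector pair plus 300 nM acute potentiator control. Primary human enteroid cells, 18-24 h compound exposure at 37 °C; membrane potential dye (methyl oxonol) fluorescence over 15 min after forskolin (10 μM)/IBMX (100 μM)/Compound III (300 nM) stimulation in chloride-free buffer.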

Chain of CFTR (P13569 with tags, fused parts or gaps DEL508-508): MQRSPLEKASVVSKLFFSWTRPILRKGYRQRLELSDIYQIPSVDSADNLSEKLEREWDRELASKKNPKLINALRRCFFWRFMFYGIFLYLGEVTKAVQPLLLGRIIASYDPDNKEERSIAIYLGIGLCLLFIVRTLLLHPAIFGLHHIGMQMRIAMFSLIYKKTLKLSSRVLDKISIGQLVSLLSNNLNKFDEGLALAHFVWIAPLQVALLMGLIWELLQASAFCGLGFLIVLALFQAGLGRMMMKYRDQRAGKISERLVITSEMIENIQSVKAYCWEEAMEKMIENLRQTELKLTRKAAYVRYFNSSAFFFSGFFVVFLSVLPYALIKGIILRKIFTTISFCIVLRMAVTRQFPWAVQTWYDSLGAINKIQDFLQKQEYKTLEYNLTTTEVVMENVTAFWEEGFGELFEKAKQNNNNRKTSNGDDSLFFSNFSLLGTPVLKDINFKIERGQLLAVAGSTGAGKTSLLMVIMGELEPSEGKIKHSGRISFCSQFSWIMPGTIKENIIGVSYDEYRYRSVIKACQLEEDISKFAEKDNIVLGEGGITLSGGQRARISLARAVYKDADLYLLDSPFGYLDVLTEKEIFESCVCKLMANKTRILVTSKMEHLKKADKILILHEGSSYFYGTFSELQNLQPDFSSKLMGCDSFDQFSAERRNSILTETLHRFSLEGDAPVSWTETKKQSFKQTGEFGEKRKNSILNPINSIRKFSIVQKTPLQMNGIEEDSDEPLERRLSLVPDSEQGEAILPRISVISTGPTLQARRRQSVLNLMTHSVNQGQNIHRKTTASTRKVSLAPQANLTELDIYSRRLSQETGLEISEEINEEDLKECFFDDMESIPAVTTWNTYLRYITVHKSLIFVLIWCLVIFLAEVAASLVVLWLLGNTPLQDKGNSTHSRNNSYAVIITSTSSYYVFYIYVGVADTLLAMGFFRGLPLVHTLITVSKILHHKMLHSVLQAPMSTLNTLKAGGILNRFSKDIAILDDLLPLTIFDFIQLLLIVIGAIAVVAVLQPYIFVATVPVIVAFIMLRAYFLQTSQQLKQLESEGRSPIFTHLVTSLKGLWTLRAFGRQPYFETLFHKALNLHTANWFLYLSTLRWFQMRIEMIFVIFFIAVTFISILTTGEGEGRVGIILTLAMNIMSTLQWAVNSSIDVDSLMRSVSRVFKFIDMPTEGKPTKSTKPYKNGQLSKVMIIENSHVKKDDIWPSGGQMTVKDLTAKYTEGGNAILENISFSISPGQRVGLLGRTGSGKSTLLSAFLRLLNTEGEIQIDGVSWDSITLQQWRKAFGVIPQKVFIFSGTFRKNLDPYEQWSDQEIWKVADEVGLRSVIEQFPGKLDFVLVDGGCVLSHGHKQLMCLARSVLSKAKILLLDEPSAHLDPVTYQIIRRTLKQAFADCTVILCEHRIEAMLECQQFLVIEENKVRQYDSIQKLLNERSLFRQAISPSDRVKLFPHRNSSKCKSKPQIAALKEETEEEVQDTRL

| Ent. A Max Activity (Table 6) | EC50 (Table 6) [nM] | Ent. A Max Activity (Table 7) | EC50 (Table 7) [nM] | Compound |
| --- | --- | --- | --- | --- |
|  |  | ++ (++ is 30-60%) | < 1000 | Cc1cccc(C)c1-c1cc2nc(n1)NS(=O)(=O)c1cccc(c1)CN(CCn1c(=O)oc3ccccc31)[C@H](CC(C)C)CO2 [Compound 1039] |
|  |  | + (+ is <30%) | 1000 to 3000 | Cc1cccc(C)c1-c1cc2nc(n1)NS(=O)(=O)c1cccc(c1)CN(C(=O)CC1CCCCC1)[C@H](CC(C)C)CO2 [Compound 1050] |
|  |  | ++ (++ is 30-60%) | 1000 to 3000 | COc1ccc(CN2C(=O)c3cccc(c3)S(=O)(=O)Nc3nc(cc(-c4c(C)cccc4C)n3)OC[C@H]2C)cc1 [Compound 986] |
|  |  | + (+ is <30%) |  | CC(=O)N1Cc2cccc(c2)S(=O)(=O)Nc2nc(cc(-c3c(C)cccc3C)n2)OC[C@H]1CC(C)C [Compound 1025] |
|  |  | +++ (+++ is >60%) | < 1000 | Cc1cccc(C)c1-c1cc2nc(n1)NS(=O)(=O)c1cccc(c1)C(=O)N(Cc1ccc(N3CCCC3)nc1)[C@H](CC(C)C)CO2 [Compound 961] |
|  |  | ++ (++ is 30-60%) | < 1000 | Cc1cccc(C)c1-c1cc2nc(n1)NS(=O)(=O)c1cccc(c1)C(=O)N(C)[C@H](c1ccc(C(C)(C)C)cc1)CO2 [Compound 1010] |
| +++ (+++ is >60%) | < 1000 |  |  | CCC(CC)CN1C(=O)c2cccc(c2)S(=O)(=O)Nc2nc(cc(-c3c(C)cccc3C)n2)OC[C@H]1CC(C)C [Compound 990] |
|  |  | +++ (+++ is >60%) | < 1000 | Cc1cccc(C)c1-c1cc2nc(n1)NS(=O)(=O)c1cccc(c1)C(=O)N(Cc1ccc(N(C)C)nc1)[C@H](CC(C)C)CO2 [Compound 949] |
|  |  | +++ (+++ is >60%) | < 1000 | Cc1cccc(C)c1-c1cc2nc(n1)NS(=O)(=O)c1cccc(c1)C(=O)N(Cc1ccc(OCCN(C)C)nc1)[C@H](CC(C)C)CO2 [Compound 942] |
|  |  | + (+ is <30%) |  | Cc1cccc(C)c1-c1cc2nc(n1)NS(=O)(=O)c1cccc(c1)CN(C(=O)CC(C)C)[C@H](CC(C)C)CO2 [Compound 1049] |
|  |  | +++ (+++ is >60%) | < 1000 | Cc1cccc(C)c1-c1cc2nc(n1)NS(=O)(=O)c1cccc(c1)C(=O)N(Cc1ccc(N3CC[C@@H](O)C3)nc1)[C@H](CC(C)C)CO2 [Compound 955] |
|  |  | ++ (++ is 30-60%) | < 1000 | Cc1cccc(C)c1-c1cc2nc(n1)NS(=O)(=O)c1cccc(c1)C(=O)N(CCC(C)(C)C)[C@H](CC(F)(F)F)CO2 [Compound 985] |
|  |  | +++ (+++ is >60%) | < 1000 | Cc1cccc(C)c1-c1cc2nc(n1)NS(=O)(=O)c1cccc(c1)C(=O)N(Cc1ccc(N3CCC(C)(C#N)CC3)nc1)[C@H](CC(C)C)CO2 [Compound 938] |
|  |  | ++ (++ is 30-60%) | < 1000 | Cc1cccc(C)c1-c1cc2nc(n1)NS(=O)(=O)c1cccc(c1)CN(Cc1ccccc1OCc1ccccc1)[C@H](CC(C)C)CO2 [Compound 1037] |
|  |  | +++ (+++ is >60%) | < 1000 | Cc1cccc(C)c1-c1cc2nc(n1)NS(=O)(=O)c1cccc(c1)C(=O)N(Cc1ccc(N3CCC[C@H](O)C3)nc1)[C@H](CC(C)C)CO2 [Compound 962] |
|  |  | ++ (++ is 30-60%) | < 1000 | CCOc1cc(CN2Cc3cccc(c3)S(=O)(=O)Nc3nc(cc(-c4c(C)cccc4C)n3)OC[C@H]2CC(C)C)ccc1OC [Compound 1038] |
| +++ (+++ is >60%) | 3000 to 30000 |  |  | Cc1cccc(C)c1-c1cc2nc(n1)NS(=O)(=O)c1cccc(c1)C(=O)N(Cc1ccncc1)CCO2 [Compound 977] |

Further lines, the molecule ahead of its results:

| Compound | Ent. A Max Activity (Table 6) | EC50 (Table 6) [nM] | Ent. A Max Activity (Table 7) | EC50 (Table 7) [nM] |
| --- | --- | --- | --- | --- |
| Cc1cccc(C)c1-c1cc2nc(n1)NS(=O)(=O)c1cccc(c1)C(=O)N(Cc1ccc(C(C)(C)C)cc1)[C@H](CC(C)C)CO2 [Compound 425] | +++ (+++ is >60%) | < 1000 |  |  |
| Cc1cccc(C)c1-c1cc2nc(n1)NS(=O)(=O)c1cccc(c1)C(=O)N(CC1CC13CCOCC3)[C@H](CC(C)C)CO2 (stereo partly shown) [Compound 416] |  |  | +++ (+++ is >60%) | < 1000 |
| Cc1cccc(C)c1-c1cc2nc(n1)NS(=O)(=O)c1cccc(c1)C(=O)N(C[C@H]1CCOC(C)(C)C1)[C@H](CC(C)C)CO2 [Compound 428] | +++ (+++ is >60%) | < 1000 |  |  |
| Cc1cccc(C)c1-c1cc2nc(n1)NS(=O)(=O)c1cccc(c1)C(=O)N(C)C[C@@H](c1ccc(C(C)(C)C)cc1)O2 (single isomer, unassigned) [Compound 12, 10-(4-tert-butylphenyl)-6-(2,6-dimethylphenyl)-12-methyl-2,2-dioxo-9-oxa-2λ^6-thia-3,5,12,19-tetrazatricyclo[12.3.1.14,8]nonadeca-1(18),4(19),5,7,14,16-hexaen-13-one] |  |  | ++ (++ is 30-60%) | < 1000 |
| Cc1cccc(C)c1-c1cc2nc(n1)NS(=O)(=O)c1cccc(c1)C(=O)N(Cc1ccc(N3CCC4(CCC4)CC3)nc1)[C@H](CC(C)C)CO2 [Compound 936] |  |  | +++ (+++ is >60%) | < 1000 |
| Cc1cccc(C)c1-c1cc2nc(n1)NS(=O)(=O)c1cccc(c1)C(=O)N(C)C[C@H](c1ccc(-c3ccc(C(C)(C)C)cc3)cn1)O2 [Compound 509] |  |  | + (+ is <30%) |  |
| Cc1cccc(C)c1-c1cc2nc(n1)NS(=O)(=O)c1cccc(c1)C(=O)N(C)CC(c1ccc(C#N)cc1)O2 (stereo not shown) [Compound 667] | ++ (++ is 30-60%) | 1000 to 3000 |  |  |
| Cc1cccc(C)c1-c1cc2nc(n1)NS(=O)(=O)c1cccc(c1)C(=O)N(C)CC(c1ccc(-c3ccccc3)cn1)O2 (stereo not shown) [Compound 513] | +++ (+++ is >60%) | 1000 to 3000 |  |  |
| Cc1cccc(C)c1-c1cc2nc(n1)NS(=O)(=O)c1cccc(c1)C(=O)N(Cc1ccccc1)C(C(=O)NC1CCCCC1)CO2 (stereo not shown) [Compound 515] | + (+ is <30%) | 1000 to 3000 |  |  |
| Cc1cccc(C)c1-c1cc2nc(n1)NS(=O)(=O)c1cccc(c1)C(=O)N(CC1CCCN1)[C@H](CC(C)C)CO2 (stereo partly shown) [Compound 344] | +++ (+++ is >60%) | < 1000 |  |  |
| Cc1cccc(C)c1-c1cc2nc(n1)NS(=O)(=O)c1cccc(c1)C(=O)N(CCC(C)C)[C@H](CCC1(C(F)(F)F)CC1)CO2 [Compound 851] | + (+ is <30%) |  |  |  |
| Cc1cccc(C)c1-c1cc2nc(n1)NS(=O)(=O)c1cccc(c1)C(=O)N(Cc1ccc(N3CCN(C)CC3)nc1)[C@H](CC1(C(F)(F)F)CC1)CO2 [Compound 684] |  |  | +++ (+++ is >60%) | < 1000 |
| CNC(=O)c1ccc(CN2C(=O)c3cccc(c3)S(=O)(=O)Nc3nc(cc(-c4c(C)cccc4C)n3)OC[C@H]2CC(C)C)cn1 [Compound 93, 5-{[(11R)-6-(2,6-dimethylphenyl)-11-(2-methylpropyl)-2,2,13-trioxo-9-oxa-2λ^6-thia-3,5,12,19-tetraazatricyclo[12.3.1.14,8]nonadeca-1(18),4(19),5,7,14,16-hexaen-12-yl]methyl}-N-methylpyridine-2-carboxamide] |  |  | +++ (+++ is >60%) | < 1000 |
| Cc1cccc(C)c1-c1cc2nc(n1)NS(=O)(=O)c1cccc(c1)C(=O)N(C)C(c1ccc(C(C)(C)C)cc1)CO2 (stereo not shown) [Compound 13, 11-(4-tert-butylphenyl)-6-(2,6-dimethylphenyl)-12-methyl-2,2-dioxo-9-oxa-2λ^6-thia-3,5,12,19-tetrazatricyclo[12.3.1.14,8]nonadeca-1(18),4(19),5,7,14,16-hexaen-13-one] |  |  | ++ (++ is 30-60%) | < 1000 |
| Cc1cccc(C)c1-c1cc2nc(n1)NS(=O)(=O)c1cccc(c1)C(=O)N(C)C[C@H](c1ccccc1)O2 [Compound 673] | + (+ is <30%) | 3000 to 30000 |  |  |
| Cc1cccc(C)c1-c1cc2nc(n1)NS(=O)(=O)c1cccc(c1)C(=O)N(C)[C@@H](CC(C)C)[C@H](c1ccc(C(C)(C)C)nc1)O2 [Compound 512] | + (+ is <30%) |  |  |  |
| Cc1cccc(C)c1-c1cc2nc(n1)NS(=O)(=O)c1cccc(c1)C(=O)N(Cc1ccc(N3CCC(F)(F)CC3)nc1)[C@H](CC(C)C)CO2 [Compound 937] |  |  | +++ (+++ is >60%) | < 1000 |
| Cc1cccc(C)c1-c1cc2nc(n1)NS(=O)(=O)c1cccc(c1)C(=O)N(Cc1cccnc1)[C@H](CC(C)C)CO2 [Compound 364] | +++ (+++ is >60%) | < 1000 |  |  |
| Cc1cccc(C)c1-c1cc2nc(n1)NS(=O)(=O)c1cccc(c1)C(=O)N(CC1CC3C=C[C@@H]1C3)[C@H](CC(C)C)CO2 (stereo partly shown) [Compound 351] | +++ (+++ is >60%) | < 1000 |  |  |
| Cc1cccc(C)c1-c1cc2nc(n1)NS(=O)(=O)c1cccc(c1)C(=O)N(Cc1ccccc1)C(C(=O)NCc1ccccc1)CO2 (stereo not shown) [Compound 514] | + (+ is <30%) | 3000 to 30000 |  |  |
| Cc1cccc(C)c1-c1cc2nc(n1)NS(=O)(=O)c1cccc(c1)C(=O)N(Cc1ccccc1)[C@@H](CCC1(C(F)(F)F)CC1)CO2 [Compound 852] | ++ (++ is 30-60%) | < 1000 |  |  |
| Cc1cccc(C)c1-c1cc2nc(n1)NS(=O)(=O)c1cccc(c1)C(=O)N(C)CC(c1ccc(C3=CCOCC3)cc1)O2 (stereo not shown) [Compound 670] |  |  | ++ (++ is 30-60%) | 1000 to 3000 |
| COCCOCCN1C(=O)c2cccc(c2)S(=O)(=O)Nc2nc(cc(-c3c(C)cccc3C)n2)OC[C@H]1CC(C)C [Compound 424] | +++ (+++ is >60%) | < 1000 |  |  |
| Cc1ccccc1-c1cc2nc(n1)NS(=O)(=O)c1cccc(c1)C(=O)N(C)[C@H](CC(C)C)[C@H](c1ccc(C(C)(C)C)cn1)O2 [Compound 343] | +++ (+++ is >60%) | < 1000 |  |  |
| Cc1cccc(C)c1-c1cc2nc(n1)NS(=O)(=O)c1cccc(c1)C(=O)N(CCC1CCCCC1)[C@H](CC(C)C)CO2 [Compound 358] | +++ (+++ is >60%) | < 1000 |  |  |
